Biological target: Protein cereblon (Homo sapiens, UniProt Q96SW2)
Test: Fluorescence Binding Assay: Fluorescence quenching end point measurements were performed in black polystyrene 384-plates on Tecan Safire monochromator reader with the following settings: excitation 280 nm; excitation bandwidth 10.0 nm; emission collection 340 nm; emission bandwidth 20.0 nm; high sensitivity flash mode; integration time 40 μS; delay 0 […]. All measurements were done in duplicates; GraphPad Prism 5.03 was used for data evaluation, curve fitting, plotting and determination of IC50 values.Serial dilutions of each tested ligands were mixed with truncated CRBN (319-427) to a final volume of 25 μL in the assay buffer (20 mM sodium phosphate buffer, pH 6.5, with 150 mM sodium chloride). The final concentration of CRBN in all assay will be 5-10 μM with DMSO level at 4%. A control lanes were prepared with only tested ligands without the addition of CRBN, top up with assay buffer to 25 μL. Plates were incubated for 5 minutes and analyzed using the monochromator plate reader.

Protein cereblon, sequence (Q96SW2 whole entry, the tested form may be a part): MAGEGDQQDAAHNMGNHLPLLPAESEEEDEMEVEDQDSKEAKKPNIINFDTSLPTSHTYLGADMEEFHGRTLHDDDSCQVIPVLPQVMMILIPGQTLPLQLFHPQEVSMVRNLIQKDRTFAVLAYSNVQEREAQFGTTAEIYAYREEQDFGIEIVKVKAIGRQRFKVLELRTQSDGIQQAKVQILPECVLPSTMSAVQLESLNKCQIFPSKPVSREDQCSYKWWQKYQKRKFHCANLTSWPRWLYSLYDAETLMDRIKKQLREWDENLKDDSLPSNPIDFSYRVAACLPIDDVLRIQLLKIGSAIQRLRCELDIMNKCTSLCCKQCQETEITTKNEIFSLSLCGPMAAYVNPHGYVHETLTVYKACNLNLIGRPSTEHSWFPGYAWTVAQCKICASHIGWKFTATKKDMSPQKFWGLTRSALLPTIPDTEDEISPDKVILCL

IC50: > 300 µM
Compound: Nc1ccc(-c2ccc3c(c2)CC(=O)N3)cn1

— ChEMBL document CHEMBL5729525, “Therapeutic compounds and methods of use thereof” (2023)
